Legend:
parent L5178 cells = assay: Rhodamine 123 cellular content in parent L5178 cells (flow cytometry); type: cell-based, mouse; details: data not shown
Procedure: The L5178 mouse T cell lymphoma parent cell line and its MDR1 expressing subline (L5178/MDR1) were used. […] The cells were adjusted to a concentration of 2×10^6 cells per ml, then resuspended in serum-free McCoy's 5A medium and 0.5-ml portions distributed into small (1.2-ml) Eppendorf centrifuge tubes. After adding various concentrations of test compounds as listed below in Table 2, the samples were incubated for 10 min at room temperature (22° C.). […] After centrifugation (450 g, 10 min) the pelleted cells were washed twice with PBS and resuspended in 0.5-ml of PBS for cytometry. The fluorescence intensity of the cell population was measured by flow cytometry using Beckton Dickinson's FACScan instrument.
The percentage mean fluorescence intensity (FL-1) was calculated for the treated parental and MDR1 cell lines as compared with that of untreated cells. […] Other values measured are Forward scattered count (FSC) and site scattered count (SSC).

Solubility in water = type: physicochemical
Excerpt: In one embodiment, CCcompound104, CCcompound26 and EA may be administered orally. The two CC compounds are water-soluble, while EA is first dissolved in absolute ethanol and diluted in water or a suitable physiologically compatible liquid solvent. In one embodiment of the invention, the CC compounds and EA are in the form of a tablet, gel capsule, a liquid, or the like. In each case, the compounds are mixed with one or more carriers chosen by one having ordinary skill in the art to best suit the goal of treatment. In addition to the active compounds, the tablet or gel may contain any component that is presently used in the pharmaceutical field to ensure firmness, stability, solubility and appropriate taste. Any additional component of the tablet or gel will be chemically inert; i.e., it will not participate in a chemical reaction with the active compounds or the other additives. Each compound may be prepared for oral consumption separately, or the tablet, gel capsule or liquid may contain any of the two components or all three components. Tablets containing 25 mg or 50 mg of EA can be purchased from Merck.

For `C[Si](C)(C)COc1ccc(C(=O)OCCN2CCN(CCCOC(=O)C3c4ccccc4Oc4ccccc43)CC2)cc1.Cl.Cl` [CCcompound104], the “effect on the cellular content of Rhodamine 123” value (parent L5178 cells) was “no detectable effects” and the solubility in water (Solubility in water) was “water-soluble”.

From patent US20080207738A1, “DRUG COMBINATIONS TO TREAT DRUG RESISTANT TUMORS” (priority 2007, published 2008)
